Results published in PMC9502272, “A Metabolomics Approach for Predicting OATP1B-Type Transporter-Mediated Drug–Drug Interaction Liabilities” (Pharmaceutics, 2022).
Structures can show the parent of a compound that is named as a salt.

Molecular target: T1, Oatp1b2 (Mus musculus, UniProt Q9JJL3)
T1 sequence (Q9JJL3 1-689): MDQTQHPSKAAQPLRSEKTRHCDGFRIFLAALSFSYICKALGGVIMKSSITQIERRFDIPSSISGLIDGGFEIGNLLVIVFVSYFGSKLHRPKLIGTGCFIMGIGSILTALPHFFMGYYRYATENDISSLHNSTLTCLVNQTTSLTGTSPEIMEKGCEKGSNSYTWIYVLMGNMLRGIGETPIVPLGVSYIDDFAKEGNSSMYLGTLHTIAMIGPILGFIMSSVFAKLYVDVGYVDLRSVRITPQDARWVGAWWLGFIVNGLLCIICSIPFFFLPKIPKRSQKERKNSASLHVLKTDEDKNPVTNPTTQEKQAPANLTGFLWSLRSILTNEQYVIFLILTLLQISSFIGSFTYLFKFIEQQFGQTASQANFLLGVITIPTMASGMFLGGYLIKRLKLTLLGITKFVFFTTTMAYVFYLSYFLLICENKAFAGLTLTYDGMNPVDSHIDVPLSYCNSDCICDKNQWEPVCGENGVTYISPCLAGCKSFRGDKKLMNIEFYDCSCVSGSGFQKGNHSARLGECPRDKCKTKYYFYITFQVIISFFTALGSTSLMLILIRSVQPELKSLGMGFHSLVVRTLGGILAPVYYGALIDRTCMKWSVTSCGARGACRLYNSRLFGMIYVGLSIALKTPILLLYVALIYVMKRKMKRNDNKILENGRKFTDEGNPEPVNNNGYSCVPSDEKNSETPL
Experiment: Untargeted metabolomics of plasma from untreated wild-type and Oatp1b2(−/−) mice
Settings: for Fold of Change KO/WT: plasma of untreated Oatp1b2-deficient (KO) vs wild-type (WT) mice, semi-quantitative, positive = higher in KO, n = 6 per group; for Mean value KO: plasma of untreated Oatp1b2-deficient mice; for Mean value KO / Mean value WT: raw area counts rescaled to median = 1; for Mean value WT: plasma of untreated wild-type mice

## C[C@H](CCC(=O)O)[C@H]1CC[C@H]2[C@@H]3CC[C@@H]4C[C@H](O)CC[C@]4(C)[C@H]3C[C@H](OS(=O)(=O)O)[C@]12C [deoxycholic acid 12-sulfate]
  Fold of Change KO/WT: 1.25
  Mean value KO: 1.06
  Mean value WT: .851

## CCCCC/C=C\C/C=C\CCCCCCCCCC(=O)OC(CC(=O)[O-])C[N+](C)(C)C (stereo not drawn) [dihomo-linoleoylcarnitine (C20:2)]
  Fold of Change KO/WT: 1.75
  Mean value KO: 1.37
  Mean value WT: .785

## O=C(O)CCCCCCCCCCC(=O)O [dodecanedioate (C12-DC)]
  Fold of Change KO/WT: 8.12
  Mean value KO: 2.97
  Mean value WT: .366

## OC[C@@H](O)[C@@H](O)CO [erythritol]
  Fold of Change KO/WT: 1.31
  Mean value KO: 1.22
  Mean value WT: .927

## CCO[C@@H]1O[C@H](CO)[C@@H](O)[C@H](O)[C@H]1O [ethyl beta-glucopyranoside]
  Fold of Change KO/WT: 1.41
  Mean value KO: 1.17
  Mean value WT: .826

## N[C@@H](CCC(=O)NCC(=O)O)C(=O)O [gamma-glutamylglycine]
  Fold of Change KO/WT: 1.23
  Mean value KO: 1.17
  Mean value WT: .950

## NCCOP(=O)(O)OCC(O)CO (stereo not drawn) [glycerophosphoethanolamine]
  Fold of Change KO/WT: 1.57
  Mean value KO: 1.31
  Mean value WT: .831

## C[N+](C)(C)CCOP(=O)([O-])OC[C@H](O)CO [glycerophosphorylcholine (GPC)]
  Fold of Change KO/WT: 1.34
  Mean value KO: 1.12
  Mean value WT: .836

## O=C(O)CCCCCCCCCCCCCCCC(=O)O [heptadecanedioate (C17-DC)]
  Fold of Change KO/WT: 1.66
  Mean value KO: 1.36
  Mean value WT: .818

## CCCCCCC(=O)NCC(=O)O [heptanoyl glycine]
  Fold of Change KO/WT: 1.52
  Mean value KO: 1.32
  Mean value WT: .868

## O=C(O)CCCCCCCCCCCCCCC(=O)O [hexadecanedioate (C16-DC)]
  Fold of Change KO/WT: 2.10
  Mean value KO: 1.57
  Mean value WT: .749

## CCCCCC(=O)NCC(=O)O [hexanoylglycine]
  Fold of Change KO/WT: 1.59
  Mean value KO: 1.40
  Mean value WT: .880

## C[N+]1(C)CCCC[C@H]1C(=O)[O-] [homostachydrine]
  Fold of Change KO/WT: 1.19
  Mean value KO: 1.09
  Mean value WT: .915

## O=S(=O)(O)Oc1ccc(O)cc1 [hydroquinone sulfate]
  Fold of Change KO/WT: 1.55
  Mean value KO: 1.32
  Mean value WT: .849

## C[C@H](CCC(=O)O)[C@H]1CC[C@H]2[C@@H]3[C@H](O)[C@H](O)[C@@H]4C[C@H](O)CC[C@]4(C)[C@H]3CC[C@]12C [hyocholate]
  Fold of Change KO/WT: 5.64
  Mean value KO: 1.41
  Mean value WT: .251

## C[C@H](CCC(=O)O)[C@H]1CC[C@H]2[C@@H]3C[C@H](O)[C@@H]4C[C@H](O)CC[C@]4(C)[C@H]3CC[C@]12C [hyodeoxycholate]
  Fold of Change KO/WT: 14.7
  Mean value KO: 3.94
  Mean value WT: .269

## NCCS(=O)O [hypotaurine]
  Fold of Change KO/WT: 1.28
  Mean value KO: 1.14
  Mean value WT: .887

## O=C1Cc2ccccc2N1 [indolin-2-one]
  Fold of Change KO/WT: 1.51
  Mean value KO: 1.20
  Mean value WT: .797
